{"source": "patent US6426343B1", "about": "“Preparation and use of a specific GABA-Aα5 receptor ligand for treatment of Alzheimer's disease” (Merck Sharp & Dohme Ltd., priority 1995, dated 2002)", "key": {"[1]": {"biological_target": "α5 subtype containing GABA-A receptors (Rattus norvegicus, UniProt P18508+P19969)", "sequence (P19969 32-464 limits assumed)": "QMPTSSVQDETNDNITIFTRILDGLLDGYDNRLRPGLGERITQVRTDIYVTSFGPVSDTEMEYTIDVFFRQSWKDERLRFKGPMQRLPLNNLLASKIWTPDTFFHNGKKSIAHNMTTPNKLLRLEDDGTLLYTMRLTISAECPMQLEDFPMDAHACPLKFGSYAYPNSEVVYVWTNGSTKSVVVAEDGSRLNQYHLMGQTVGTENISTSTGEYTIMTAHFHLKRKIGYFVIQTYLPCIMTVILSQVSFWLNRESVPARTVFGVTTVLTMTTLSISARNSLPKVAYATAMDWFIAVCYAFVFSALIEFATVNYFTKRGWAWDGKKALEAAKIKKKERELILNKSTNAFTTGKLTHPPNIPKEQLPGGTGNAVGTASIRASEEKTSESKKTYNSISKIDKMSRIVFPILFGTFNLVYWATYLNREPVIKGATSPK", "sequence (P18508 39-466)": "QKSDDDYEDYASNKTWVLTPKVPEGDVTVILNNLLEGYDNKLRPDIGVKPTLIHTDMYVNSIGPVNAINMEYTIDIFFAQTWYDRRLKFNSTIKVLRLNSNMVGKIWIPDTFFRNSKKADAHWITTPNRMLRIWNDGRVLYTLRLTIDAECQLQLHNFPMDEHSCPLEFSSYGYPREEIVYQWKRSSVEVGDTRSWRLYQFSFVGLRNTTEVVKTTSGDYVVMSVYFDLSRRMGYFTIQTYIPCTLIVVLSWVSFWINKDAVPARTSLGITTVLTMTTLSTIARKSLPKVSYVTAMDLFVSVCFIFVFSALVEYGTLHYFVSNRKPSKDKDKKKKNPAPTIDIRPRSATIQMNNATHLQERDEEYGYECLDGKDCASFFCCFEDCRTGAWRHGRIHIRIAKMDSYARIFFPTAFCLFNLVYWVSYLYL", "sequence (P63079 26-473 partner)": "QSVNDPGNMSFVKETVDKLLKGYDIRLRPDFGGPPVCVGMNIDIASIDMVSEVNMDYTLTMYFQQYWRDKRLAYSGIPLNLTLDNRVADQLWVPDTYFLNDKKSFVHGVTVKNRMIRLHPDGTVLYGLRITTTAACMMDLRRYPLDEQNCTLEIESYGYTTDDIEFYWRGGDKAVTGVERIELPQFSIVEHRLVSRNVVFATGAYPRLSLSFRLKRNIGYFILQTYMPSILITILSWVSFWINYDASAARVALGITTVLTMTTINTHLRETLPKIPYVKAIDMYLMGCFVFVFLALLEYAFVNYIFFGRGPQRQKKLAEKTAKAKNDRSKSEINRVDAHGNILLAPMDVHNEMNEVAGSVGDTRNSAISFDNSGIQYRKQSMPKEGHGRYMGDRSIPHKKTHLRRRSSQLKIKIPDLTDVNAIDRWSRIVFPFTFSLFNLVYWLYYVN", "test": "In vivo [3H]FG 8094 binding after pellet implantation", "conditions": "SC pellet, after first four swim trials, [3H]FG 8094 IV", "description": "In a second experiment the vehicle or FG pellets were implanted into rats exactly as described above. However, after the first four swim trials the animals were injected (IV) with [^3H]FG 8094 and three mins later the brains of the animals were rapidly removed."}, "[2]": {"test_system": "non-α5 subtype containing GABA-A receptors", "test": "In vivo [3H]Ro 15-1788 binding after pellet implantation", "set-up": "species or system rat", "conditions": "SC pellet"}, "[3]": {"biological_target": "T1, α5β3γ2 (Homo sapiens, UniProt P18507+P31644)", "T1 construct": "expressed in transfected cells", "T1 sequence (P31644 32-462)": "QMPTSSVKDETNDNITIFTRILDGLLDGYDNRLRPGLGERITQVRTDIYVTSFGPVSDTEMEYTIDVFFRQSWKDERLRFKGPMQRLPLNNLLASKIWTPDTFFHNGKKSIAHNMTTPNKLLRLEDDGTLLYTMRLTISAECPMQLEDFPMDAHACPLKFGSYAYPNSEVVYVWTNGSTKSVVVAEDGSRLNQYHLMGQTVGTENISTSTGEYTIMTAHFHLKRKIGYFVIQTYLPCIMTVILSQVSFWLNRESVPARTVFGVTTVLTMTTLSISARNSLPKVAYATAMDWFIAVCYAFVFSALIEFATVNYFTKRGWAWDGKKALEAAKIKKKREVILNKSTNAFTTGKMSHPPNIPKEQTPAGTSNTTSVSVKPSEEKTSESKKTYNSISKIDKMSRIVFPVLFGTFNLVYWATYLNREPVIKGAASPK", "T1 sequence (P28472 26-473 partner)": "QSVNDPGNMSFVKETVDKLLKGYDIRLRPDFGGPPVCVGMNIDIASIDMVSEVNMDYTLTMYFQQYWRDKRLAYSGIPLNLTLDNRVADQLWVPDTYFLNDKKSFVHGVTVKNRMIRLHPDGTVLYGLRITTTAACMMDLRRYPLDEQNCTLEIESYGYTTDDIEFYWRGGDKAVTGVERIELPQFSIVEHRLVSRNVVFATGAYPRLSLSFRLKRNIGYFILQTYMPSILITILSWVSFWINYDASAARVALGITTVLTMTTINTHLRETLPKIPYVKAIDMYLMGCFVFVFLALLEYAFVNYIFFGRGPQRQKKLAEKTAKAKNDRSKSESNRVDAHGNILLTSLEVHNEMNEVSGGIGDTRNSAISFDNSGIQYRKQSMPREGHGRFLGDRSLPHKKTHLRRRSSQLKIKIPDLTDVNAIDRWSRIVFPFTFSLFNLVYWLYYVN", "T1 sequence (P18507 40-467 isoform P18507-1 limits assumed)": "as the sequence (P18508 39-466) above", "test": "Radioligand binding, membranes of stably transfected cells"}, "[4]": {"test_system": "rats", "test": "Pro-convulsant testing, chronic treatment, PTZ infusion", "assay_type": "in vivo, rat", "conditions": "0.1, 0.3, 1.0 mg/kg IP, 24 doses, final dose 48 h before testing", "experimental": "The rats used in this study received chronic treatment with FG 8094 during a MWM experiment. The rats were dosed IP once per day (Monday to Friday) and received a total of 24 doses. Following each drug administration rats were tested in a MWM and received the final dose of drug 48 h prior to convulsant testing. The subjects were assigned to one of four treatment groups (n=8) and given either Vehicle, 0.1, 0.3, or 1.0 mg/kg of FG 8094.\nOn the day of proconvulsant testing, the rats were restrained and pentylenetetrazole (PTZ, 40.0 mg/ml) was infused as described above. The latency(s) to both clonic and tonic (full extension) convulsion was recorded. Latency data were transformed to yield the dose of PTZ needed to reach the threshold of both clonic and tonic seizures."}, "[5]": {"biological_target": "T2, α3β3γ2 (Homo sapiens, UniProt P18507+P34903)", "T2 construct": "expressed in transfected cells", "test": "Radioligand binding, membranes of stably transfected cells"}, "[6]": {"test": "Blood levels after subcutaneous pellet implantation", "conditions": "1.5 mg in hydroxy propylmethylcellulose pellet, rats"}, "[7]": {"test_system": "male Sprague Dawley rats", "test": "Pro-convulsant testing, acute treatment, PTZ infusion", "assay_type": "in vivo, rat", "conditions": "0.5-4.0 mg/kg IP 30 min prior to PTZ infusion", "experimental": "Sixty naive male Sprague Dawley rats (225-265 g) housed in groups of four with food and water freely available, served as subjects. The rats were assigned to one of six groups and given: Vehicle or 0.5, 1.0, 2.0, 4.0 mg/kg of […] or 10.0 mg/kg of the non-selective receptor inverse agonist, CGS 8216, a known pro-convulsant agent. Vehicle, FG 8094 or CGS 8216 was administered IP 30 min prior to an infusion of the convulsant, pentylenetetrazole (PTZ, 40 mg/ml). PTZ was infused into the tail vein of the rat at the rate of 1.0 ml/min. The latency to clonic and tonic seizure were recorded and the threshold to each was calculated using the equation: Threshold dose=infusion rate (ml/s)×PTZ (mg/ml)×(1000/rats weight)×latency(s)."}, "[8]": {"test_system": "benzodiazepine binding site of α1-containing GABA receptors", "test": "In vivo [3H]Ro 15-1788 binding, cerebellum", "conditions": "male, Swiss-Webster, mouse, cerebellum, intraperitoneal, 1 mg/kg, probe [3H]Ro 15-1788", "experimental": "(§1) The in vivo binding of [^3H]Ro 15-1788 to mouse brain was performed essentially as described by Goeders and Kuhar (1985). Male Swiss-Webster mice received a 0.9% NaCl solution containing 50 mCi/kg of [^3H]Ro 15-1788 (0.05 ml/10 g of body weight) via the tail vein. […] Each mouse brain was then rapidly removed, homogenised in 5.0 ml of 50 mM Tris HCl, 5.0 mM EDTA, pH 7.4 at 4° C. using an ultra-turrax homogeniser for 10 s at setting 5. In a separate series of experiments different brain regions, selected for their preferential expression of particular GABA subtypes were also examined. Binding of [^3H]Ro 15-1788 to cerebellum is almost exclusively α1-like (Quirk et al, 1994), whereas binding to spinal cord is indicative of binding to receptors containing α2 or α3-subtypes, α1, α4 and α5 are rare or absent in this region (Wisden et al, 1992). Brains were rapidly dissected into forebrain and cerebellum and the spinal cord was also removed. Each forebrain was homogenised in 4.0 ml of buffer (approximately 14 ml/g wet weight of tissue), each cerebellum was homogenised in 1.0 ml of buffer (approximately 14 ml/g wet weight of tissue) and each spinal cord in 1.0 ml of buffer (approximately […] wet weight of tissue). Volumes ([…]) of homogenate were filtered rapidly through GF/B filters, washed with 2×5.0 ml volumes of ice-cold buffer and the residual radioactivity was counted by liquid scintillation spectroscopy.\n(§2) Mice were injected intraperitoneally with FG 8094, 10 mg/kg or 1 mg/kg, 30 minutes prior to sacrifice and [^3H]Ro 15-1788 (0.1 mCi/g). Brain regions were dissected, homogenised and filtered as described in methods."}, "[9]": {"biological_target": "Cerebellum (α1) (Mus musculus, UniProt P22723+P62812)", "sequence (P62812 28-455)": "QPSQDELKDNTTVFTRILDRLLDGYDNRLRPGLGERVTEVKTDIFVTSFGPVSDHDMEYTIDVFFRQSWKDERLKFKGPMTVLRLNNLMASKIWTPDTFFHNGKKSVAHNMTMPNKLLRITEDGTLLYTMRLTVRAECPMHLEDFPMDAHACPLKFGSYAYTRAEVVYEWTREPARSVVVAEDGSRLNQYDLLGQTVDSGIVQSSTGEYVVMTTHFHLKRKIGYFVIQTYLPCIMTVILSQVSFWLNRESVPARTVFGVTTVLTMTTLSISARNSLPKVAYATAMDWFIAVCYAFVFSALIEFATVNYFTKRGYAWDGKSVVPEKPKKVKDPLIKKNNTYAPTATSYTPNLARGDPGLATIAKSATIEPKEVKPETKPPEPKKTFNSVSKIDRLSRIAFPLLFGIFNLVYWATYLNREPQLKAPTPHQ", "sequence (P22723 39-474)": "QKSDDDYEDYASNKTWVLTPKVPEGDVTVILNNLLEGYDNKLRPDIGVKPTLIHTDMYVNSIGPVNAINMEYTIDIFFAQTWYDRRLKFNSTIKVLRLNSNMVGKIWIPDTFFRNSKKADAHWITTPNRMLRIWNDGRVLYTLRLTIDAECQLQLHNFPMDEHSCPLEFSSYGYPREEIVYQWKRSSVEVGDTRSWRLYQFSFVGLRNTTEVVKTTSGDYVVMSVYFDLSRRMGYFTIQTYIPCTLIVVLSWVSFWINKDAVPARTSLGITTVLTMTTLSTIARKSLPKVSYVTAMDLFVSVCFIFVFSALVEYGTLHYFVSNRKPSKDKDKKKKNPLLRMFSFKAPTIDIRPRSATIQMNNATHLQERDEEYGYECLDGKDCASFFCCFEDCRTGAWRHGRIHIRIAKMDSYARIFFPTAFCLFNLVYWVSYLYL", "sequence (P63137 25-474 partner limits assumed)": "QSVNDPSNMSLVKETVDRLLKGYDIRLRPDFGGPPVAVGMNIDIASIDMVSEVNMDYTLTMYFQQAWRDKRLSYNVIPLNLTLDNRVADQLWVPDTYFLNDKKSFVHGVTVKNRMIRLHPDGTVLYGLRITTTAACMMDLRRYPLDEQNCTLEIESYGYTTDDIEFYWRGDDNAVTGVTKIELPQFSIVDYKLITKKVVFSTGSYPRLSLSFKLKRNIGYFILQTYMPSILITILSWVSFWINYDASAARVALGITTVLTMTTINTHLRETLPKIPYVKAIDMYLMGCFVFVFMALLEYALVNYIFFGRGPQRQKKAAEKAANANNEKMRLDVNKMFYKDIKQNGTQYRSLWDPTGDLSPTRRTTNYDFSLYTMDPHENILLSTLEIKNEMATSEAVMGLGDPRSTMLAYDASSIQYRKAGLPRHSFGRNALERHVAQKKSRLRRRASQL", "test": "In vivo [3H]Ro 15-1788 binding, cerebellum", "experimental": "as §1, §2"}, "[10]": {"biological_target": "T3, α2β2γ2 (Homo sapiens, UniProt P18507+P47869)", "T3 construct": "expressed in transfected cells; host or cells: Xenopus oocytes, nuclear injection of cDNAs in pCDM8", "T3 sequence (P47869 29-451)": "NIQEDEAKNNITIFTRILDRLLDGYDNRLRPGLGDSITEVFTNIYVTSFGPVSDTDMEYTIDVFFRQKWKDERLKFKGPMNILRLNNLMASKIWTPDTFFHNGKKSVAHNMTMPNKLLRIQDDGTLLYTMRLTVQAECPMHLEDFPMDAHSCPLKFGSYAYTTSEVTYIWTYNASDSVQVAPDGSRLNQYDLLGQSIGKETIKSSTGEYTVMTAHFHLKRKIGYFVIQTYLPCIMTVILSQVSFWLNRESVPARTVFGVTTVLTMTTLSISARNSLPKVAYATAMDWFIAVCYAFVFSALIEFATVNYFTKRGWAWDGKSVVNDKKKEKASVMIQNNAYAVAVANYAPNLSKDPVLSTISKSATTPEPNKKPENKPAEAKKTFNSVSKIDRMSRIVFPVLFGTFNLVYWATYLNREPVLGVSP", "T3 sequence (P47870 25-512 partner limits assumed)": "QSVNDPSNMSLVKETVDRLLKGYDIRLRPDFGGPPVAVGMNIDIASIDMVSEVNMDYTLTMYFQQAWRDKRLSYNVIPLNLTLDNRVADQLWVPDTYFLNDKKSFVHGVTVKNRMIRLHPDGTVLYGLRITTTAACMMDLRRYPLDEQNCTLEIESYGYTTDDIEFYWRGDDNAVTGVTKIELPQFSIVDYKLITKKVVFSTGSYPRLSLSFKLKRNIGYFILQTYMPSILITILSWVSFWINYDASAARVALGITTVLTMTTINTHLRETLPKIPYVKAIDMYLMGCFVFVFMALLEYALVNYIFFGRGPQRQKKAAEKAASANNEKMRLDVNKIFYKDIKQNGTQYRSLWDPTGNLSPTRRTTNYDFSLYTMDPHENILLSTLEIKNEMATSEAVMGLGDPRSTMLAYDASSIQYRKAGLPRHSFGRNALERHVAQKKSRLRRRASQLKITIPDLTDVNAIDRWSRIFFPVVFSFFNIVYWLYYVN", "T3 sequence (P18507 40-467 isoform P18507-1 limits assumed)": "as the sequence (P18508 39-466) above", "test": "Two electrode voltage-clamp, modulation of GABA EC20 current in Xenopus oocytes", "assay_type": "cell-based", "conditions": "1 μM", "experimental": "(§3) Binding studies on transfected cells containing α1β3γ2S, α2β3γ2S, and α5β3γ2S have identified compounds with α5 selectivity. These compounds were studied using electrophysiological techniques (Wafford et al, 1993) to determine their functional effects on […], α2β2γ2S, α3β2γ2S, α5β2γ2S and α6β2γ2S GABAA receptors expressed in Xenopus oocytes. Oocyte nuclei were directly injected with 10.0-20.0 nl of the relevant cDNAs (6.0 ng/μl) engineered into the expression vector pCDM8. Following incubation for 24 h, oocytes were placed in a […] and perfused with saline. By using the two electrode voltage-clamp recording method, GABA activated currents could be measured by bathing the cell in a solution containing GABA. Firstly a reproducible current response was established using a GABA concentration which gave approximately 20% of the maximal GABA response that could be elicited (EC20). […] The response could be potentiated by a BZ receptor agonist or inhibited by BZ receptor inverse agonist"}, "[11]": {"biological_target": "T4, α1β2γ2 (Homo sapiens, UniProt P14867+P18507)", "T4 construct": "expressed in transfected cells; host or cells: Xenopus oocytes, nuclear injection of cDNAs in pCDM8", "test": "Two electrode voltage-clamp, modulation of GABA EC20 current in Xenopus oocytes", "assay_type": "cell-based", "conditions": "1 μM", "experimental": "as §3"}, "[12]": {"biological_target": "T5, α3β2γ2 (Homo sapiens, UniProt P18507+P34903)", "T5 construct": "expressed in transfected cells; host or cells: Xenopus oocytes, nuclear injection of cDNAs in pCDM8", "test": "Two electrode voltage-clamp, modulation of GABA EC20 current in Xenopus oocytes", "assay_type": "cell-based", "conditions": "1 μM", "experimental": "as §3"}, "[13]": {"biological_target": "T6, α5β2γ2 (Homo sapiens, UniProt P18507+P31644)", "T6 construct": "expressed in transfected cells; host or cells: Xenopus oocytes, nuclear injection of cDNAs in pCDM8", "T6 sequence (P31644 32-462)": "as the sequence (P31644 32-462) above", "T6 sequence (P47870 25-512 partner limits assumed)": "as the sequence (P47870 25-512 partner limits assumed) above", "T6 sequence (P18507 40-467 isoform P18507-1 limits assumed)": "as the sequence (P18508 39-466) above", "test": "Two electrode voltage-clamp, modulation of GABA EC20 current in Xenopus oocytes", "assay_type": "cell-based", "conditions": "1 μM", "experimental": "as §3"}, "[14]": {"conditions": "ip, read-out: percentage inhibition of in vivo [3H]Ro 15-1788 binding, cerebellum"}}, "data": [{"smiles": "CCOC(=O)c1ncn2c1[C@@H]1CCCN1C(=O)c1cc(OC)ccc1-2", "note": "[FG 8094, 9H-imidazo[1,5-a]pyrrolo[2,1-C][1,4]benzodiazepine-1-carboxylic acid, 11, 12, 13, 13a-tetrahydro-7-methoxy-9-oxo-, ethyl ester, (S)-(9CI)]", "values": [{"measurement": "occupancy of α5 subtype containing GABA-A receptors in the brain", "setting": "[1]", "result": "approximately 85%"}, {"measurement": "occupancy of non-α5 subtype containing GABA-A receptors", "setting": "[2]", "result": "did not significantly occupy"}, {"measurement": "Ki", "setting": "[3]", "result": "0.45 ± 0.15", "unit": "nM"}, {"measurement": "selectivity for α5-containing receptors over α1", "setting": "[3]; over α1", "result": 107, "unit": "fold"}, {"measurement": "selectivity for α5-containing receptors over α2", "setting": "[3]; over α2", "result": 60, "unit": "fold"}, {"measurement": "selectivity for α5-containing receptors over α3", "setting": "[3]; over α3", "result": 53, "unit": "fold"}, {"measurement": "selectivity for α5-containing receptors over α6", "setting": "[3]; over α6", "result": 184, "unit": "fold"}, {"measurement": "threshold dose of PTZ to clonic or tonic seizure", "setting": "[4]", "result": "no significant effect of treatment"}, {"measurement": "Ki", "setting": "[5]", "result": "24.5 ± 2", "unit": "nM"}, {"measurement": "blood levels", "setting": "[6]", "result": "greater than 100 ng/ml"}, {"measurement": "duration of blood levels greater than 100 ng/ml", "setting": "[6]", "result": "more than 6 hours"}, {"measurement": "pro-convulsant effects", "setting": "[7]", "result": "devoid of pro-convulsant effects"}, {"measurement": "concentration at 30 min", "setting": "[8]", "result": 7.8, "unit": "nM"}, {"measurement": "inhibition at 1 mg/kg", "setting": "[9]; [14]", "result": "13.8 ± 4.9", "unit": "%"}, {"measurement": "inhibition at 10 mg/kg", "setting": "[9]; [14]", "result": "55 ± 6.9", "unit": "%"}, {"measurement": "receptor occupancy at 1 mg/kg", "setting": "[9]; read-out: occupancy of α1 receptors", "result": "< 15", "unit": "%"}, {"measurement": "functional effect on GABA EC20 current, α2β2γ2", "setting": "[10]", "result": "partial receptor inverse agonist"}, {"measurement": "functional effect on GABA EC20 current, α1β2γ2", "setting": "[11]", "result": "no intrinsic effect"}, {"measurement": "functional effect on GABA EC20 current, α3β2γ2", "setting": "[12]", "result": "partial receptor inverse agonist"}, {"measurement": "functional effect on GABA EC20 current, α5β2γ2", "setting": "[13]", "result": "full receptor inverse agonist"}]}]}
